From patent US6933305B2, “Amide compounds and use thereof” (Mitsubishi Pharma Corporation, priority 2000, dated 2005)
Structures can show the parent of a compound that is named as a salt.

molecular target: T1, human ROCK-1 kinase domain (1 to 477 amino acids) (Homo sapiens, UniProt Q13464); test: Rho kinase inhibitory activity (inhibitory activity on human Rho kinase); assay type: biochemical; details: recombinant His-tagged human ROCK-1 kinase domain, histone substrate, 1 μM [32P]ATP, room temperature 20 min
T1 construct: a vector that expresses the kinase domain (1 to 477 amino acids) of the ROCK-1 protein; His-Tag (6xHis); made in house; host or cells: Sf9 insect cells, recombinant baculovirus (pBAC-1 vector)
T1 sequence (Q13464 1-477): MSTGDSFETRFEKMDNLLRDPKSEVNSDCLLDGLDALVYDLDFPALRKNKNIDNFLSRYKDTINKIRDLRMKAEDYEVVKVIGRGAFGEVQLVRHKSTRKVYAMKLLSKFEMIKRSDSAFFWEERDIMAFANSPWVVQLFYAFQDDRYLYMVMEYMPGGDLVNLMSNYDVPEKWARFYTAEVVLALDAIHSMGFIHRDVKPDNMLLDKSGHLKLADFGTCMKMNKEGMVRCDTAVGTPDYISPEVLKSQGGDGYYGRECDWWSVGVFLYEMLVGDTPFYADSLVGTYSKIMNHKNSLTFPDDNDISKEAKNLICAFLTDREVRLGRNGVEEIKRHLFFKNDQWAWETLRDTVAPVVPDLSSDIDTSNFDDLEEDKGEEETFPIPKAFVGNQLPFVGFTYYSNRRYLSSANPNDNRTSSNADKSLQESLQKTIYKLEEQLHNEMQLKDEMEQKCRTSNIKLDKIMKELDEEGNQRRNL
Description: Rho Kinase Inhibitory Activity (Inhibitory Activity on Human Rho Kinase)
Human Rho kinase was prepared as follows. Using the following primer prepared based on the human ROCK-1 cDNA sequence reported by Ishizaki et al. (T. Ishizaki et al. EMBO J. 15, 1885-1893, 1996) and Human Placenta cDNA (Clontech, Lot. 7030086) as a template, PCR amplification was carried out.
The amplified DNA fragment was digested with Sac I and Not I, and inserted into the Sac I/Not I site of a commercially available vector for insect cell expression, pBAC-1 (Novagenn), whereby a […] human ROCK-1 protein expression vector was prepared. […]
A reaction mixture (total amount 100 μl) containing 20 mM (N-morpholino)propanesulfone acid-NaOH (pH 7.2), 0.1 mg/ml bovine serum albumin, 5 mM dithiothreitol, 10 mM β-glycerophosphoric acid, 50 μM sodium vanadate, 10 mM magnesium chloride, 1 μM [^32P] […] Then, the radioactivity incorporated into the substrate was measured using a liquid scintillation counter. […]

IC50	Compound
13 nM	N[C@H]1CCSc2cc(C(=O)Nc3ccncc3)ccc21 [Example 10, (S)-4-amino-N-(4-pyridyl)thiochromane-7-carboxamide]

tested on: not given; test: not given; details: not given

Compound	melting point
N[C@@H]1CCS(=O)(=O)c2cc(C(=O)Nc3ccncc3)ccc21 (as salt: HCl) (hydrate or solvate) [Example 6, (R)-4-amino-N-(4-pyridyl)thiochromane-7-carboxamide 1,1-dioxide]	> 275 °C (dec.)
N[C@@H]1CCS(=O)(=O)c2cc(C(=O)Nc3ccncc3)ccc21 (as salt: HCl) (hydrate or solvate) [Example 7, (R)-4-amino-N-(4-pyridyl)thiochromane-7-carboxamide 1,1-dioxide]	> 250 °C (dec.)
N[C@H]1CCSc2cc(C(=O)Nc3ccncc3)ccc21 (as salt: HCl) (hydrate or solvate) [Example 10, (S)-4-amino-N-(4-pyridyl)thiochromane-7-carboxamide]	> 260 °C (dec.)

Next, values leading:

melting point	Compound
> 230 °C (dec.)	NC1CCS(=O)(=O)c2cc(C(=O)Nc3ccncc3)ccc21 (stereo not drawn) (as salt: HCl) (hydrate or solvate) [Example 1, 4-amino-N-(4-pyridyl)thiochromane-7-carboxamide 1,1-dioxide]
> 280 °C (dec.)	NC1CCSc2cc(C(=O)Nc3ccncc3)ccc21 (stereo not drawn) (as salt: HCl) [Example 2, 4-amino-N-(4-pyridyl)thiochromane-7-carboxamide]
